Like-named read-outs stand apart in the source and are kept apart here. *1 amine or outer side, *2 acyl side, *3 side chain or, on linkers, in order; H or OH if unused. Where a SMILES comes first, the peptide text is derived from it. [ ]: non-standard residue; d: D form. X1 = O=C(c1ccc(-c2ccc(N[*:1])cn2)nc1)[*:2]; βAla = NCCC(=O)O
Assays:
[1] = system: NCI-H460 (lung carcinoma); settings: 48 h
Text: (§1) IC50 is the concentration at which 50% growth inhibition is obtained and E max represents the efficacy of the compound at its maximum concentration, expressed as the maximum % cell inhibition achieved by the compound (see Section S6 and Figure S8 of the Supporting Information).
(§2) General method: cell lines and grown conditions
(§3) Non-small lung carcinoma NCI-H460, human colon carcinoma HCT-116, human glioma SF-268
(§4) and doxorubicin-resistance human mamma carcinoma NCI/ADR-RES cell lines, as well as
(§5) Eagle’s Minimal Essential Medium (EMEM) and RPMI1640 were purchased from the American Tissue Culture Collection (ATCC). Frozen cells were thawed in a 75 cm2 cell culture flask in RPMI
(§6) supplemented with 2 mM L-glutamine and 10% FBS and maintained at 37 °C in a 5% CO2
(§7) The inhibition of cell proliferation induced by the samples [1/Cu(II), 1 eq. cyclopeptide 1/3 eq. of
(§8) Cu(II); 2/Cu(II), 1 eq. cyclopeptide 2/5 eq. of Cu(II)]‚ was carried out by using MTT method for
(§9) HCT-116, NCI/ADR-RES and NCI-H460 cell lines. SF-268 cell growth inhibition induced by the
(§10) samples was assessed using a system based on crystal violet cell staining and subsequent
(§11) acetylation. Cells were seeded in a 96-well microplate (5000 cells/well for HCT-116, 10000
(§12) cells/well for SF-268 and 15000 cells/well for NCI/ADR-RES and NCI-H460 cell lines) in 100 μl
(§13) of growth medium and maintained at 37 °C for 24 h.
(§14) Then growth medium was replaced by fresh medium containing different concentrations of the
(§15) samples to be assayed and maintained at 37 °C in a 5% CO2 atmosphere for 48 h. After this
(§16) time, 10 μL MTT (5 mg/ml in PBS) were added to each well and maintained for 4 h at 37 °C in a
(§17) 5% CO2 atmosphere. Then 100 μL of 10% SDS in 0.01 M HCl were added to each well an
(§18) incubated for 12-14 h under the same experimental conditions. Absorbance due to formation
(§19) was detected in a Tecan infinity M1000 Pro reader using a wavelength of 595 nm. All assays
were performed with triplicate points.
b) Crystal violet cell staining
(§20) The samples dissolved in water were added, maintaining the same proportion of water in each
(§21) well (10%). After 72 h (at 37°C and in an atmosphere of 5% CO 2/95% air), the cells were fixed to
(§22) the plate with 10 μL of 11% glutaraldehyde solution, kept under agitation at room temperature,
(§23) for 15 minutes. Once fixed, the medium was removed and the cells were washed 3-4 times with
(§24) distilled water, followed by staining of the cells with 100 μL of a 0.1% crystal violet solution. This
(§25) solution was prepared by diluting 0.1g of crystal violet in 100 mL of buffer composed of 200 mM
(§26) phosphoric acid, 200 mM formic acid and 200 mM 2-(N-morpholino)-ethane sulphonic acid
(§27) (MES) at pH 6. The plate was kept shaking at room temperature for 15 minutes. The dye was
(§28) removed, washed 3-4 times with distilled water and dried. 100 μL of 10% acetic acid was then
(§29) added and kept under agitation for 15 minutes, at room temperature, so that the staining was
(§30) homogeneous in all wells. Finally, an absorbance reading of the plates was performed at a
(§31) wavelength of 595 nm (Tecan M1000 Infinite Pro). The assay was performed with triplicate points.
(§32) Data were expressed as the growth inhibition percentage calculated in basis on the equation: %
(§33) inhibition= 100 – [(AO × 100) / AT]. Where AT is the measured absorbance in wells containing
(§34) compounds and AO is the absorbance measured in blank wells (cells with medium and vehicle).
(§35) The inhibitory potency of compounds was calculated by constructing concentration-% growth
(§36) inhibition curves, and extrapolating IC50 values (concentration of compound that inhibits cells

NCI/ADR-RES cells [2] = assay: Intracellular ROS generation (ROS Assay Stain 1X); assay type: cell-based; settings: 100 μM compound with 125 μM H2O2, 1-5 h and 24 h, 1/Cu(II) equimolar
Method: Measurement of intracellular ROS levels in NCI/ADR-RES cells treated with Cu(II) ions, cyclopeptide 1, or the 1/Cu(II) metallopeptide system confirmed a time-dependent increase in the level of ROS generation. In short, after 24 h of incubation, cells were stained with ROS Assay Stain 1× and treated with 100 μM Cu(II) (CuCl2·2H2O), cyclopeptide 1, or 1/Cu(II), along with 125 μM H2O2, and fluorescence was recorded (λex = 495/λem = 520 nm) every hour for the first 5 h and again at 24 h. The experiment with the metallopeptide system was conducted by using equimolar amounts of cyclopeptide 1 and Cu(II) to prevent an excess of free copper in the medium. […] The cytotoxicity of the metallopeptide systems appears to be closely linked to their ability to enhance intracellular oxidative stress via increased ROS production, likely driven by Cu(II) accumulation within the cells.
9.2. […]
NCI/ADR-RES cells were seeded in a 96 well plate (Thermo Scientific 165305) at a density of 2,5 x 10^5 cells/ml. […] The fluorescence was measured in a microplate reader every hour for the first 5 hours, and again at 24 hours after the addition of the compounds (λex= 495 nm / λem= 520 nm). […]
Figure S15. […] Fluorescence (λex= 495 nm / λem= 520 nm) was recorded every hour for the first 5 hours, and again at 24 hours after the addition of the compounds to assess intracellular ROS generation. […]

SF-268 (human glioma) = settings: 72 h
Text: as §1, §2, §3, §4, §5, §6, §7, §8, §9, §10, §11, §12, §13, §14, §15, §16, §17, §18, §19
were performed with triplicate points.
b) Crystal violet cell staining
as §20, §21, §22, §23, §24, §25, §26, §27, §28, §29, §30, §31, §32, §33, §34, §35, §36

[3] = system: nontransformed lung fibroblast (MRC-5)
Text: as §1, §2, §3, §4, §5, §6, §7, §8, §9, §10, §11, §12, §13, §14, §15, §16, §17, §18, §19
were performed with triplicate points.
b) Crystal violet cell staining
as §20, §21, §22, §23, §24, §25, §26, §27, §28, §29, §30, §31, §32, §33, §34, §35, §36

[4] = system: HCT-116 (colon carcinoma); settings: 48 h
Text: as §1, §2, §3, §4, §5, §6, §7, §8, §9, §10, §11, §12, §13, §14, §15, §16, §17, §18, §19
were performed with triplicate points.
b) Crystal violet cell staining
as §20, §21, §22, §23, §24, §25, §26, §27, §28, §29, §30, §31, §32, §33, §34, §35, §36

NCI/ADR-RES cells [5] = assay: ICP-MS internalization study (intracellular Cu accumulation); assay type: cell-based; settings: 1 µM compound, 48 h, metallopeptides 1 eq. cyclopeptide + 1 eq. Cu(II)
Method: To evaluate the ability of the Cu(II) metallopeptide systems to internalize in cancer cells, ICP-MS studies were performed in NCI/ADR-RES cells after 48 h of incubation with cyclopeptides 1 and 2, as well as their corresponding 1/Cu(II) and 2/Cu(II) metallopeptide derivatives formed by mixing each cyclopeptide with 1 equiv Cu(II), and using CuCl2·2H2O both as a Cu(II) source and a control.
7.1. General methods and materials
ICP Measurements were conducted employing an Agilent 7900 ICP-MS system (Agilent Technologies, Tokyo, Japan). The sample introduction system was comprised of an autosampler, a double-pass spray chamber with Peltier system, a glass concentric nebulizer (MicroMist low-flow nebulizer, Glass Expansion, West Melbourne, Australia), and a quartz torch.
Quantification of copper concentrations was achieved using Agilent ICP-MS MassHunter 5.1, (Version D.01.01 Agilent Technologies, Tokyo, Japan). The parameters for the ICP-MS device were as follows: RF Power, 1550 W; Sample Depth, 8; Carrier Gas, 1.1 L/min; Nebulizer Pump […]
Roswell Park Memorial Institute 1640 medium (RPMI), fetal bovine serum (FBS), penicillin, and streptomycin were purchased from Invitrogen Thermo Fisher.
Ovarian tumour NCI/ADR-RES cells, obtained from the European Collection of Authenticated Cell Cultures (ECACC), were cultured at 37 °C in a 5% CO2 atmosphere in RPMI medium containing 10% FBS and supplemented with 50 U/mL penicillin and 50 U/mL streptomycin, in 75 cm2 cell culture flasks. All cell experiments were performed at 37 °C in a 5% CO 2 atmosphere with this modified RPMI, referred as “medium” or “culture medium”.
7.3. […]
The culture medium was then replaced with 3 mL of fresh medium containing 1 µM of the compound [Cu(II) (CuCl₂·2H₂O), cyclopeptide ( 1 or 2), or metallopeptide system [1/Cu(II) or 2/Cu(II); 1 eq. cyclopeptide + 1 eq. […] Lysates were digested at 95 °C overnight, diluted with 1% HNO₃ to a final volume of 5 mL, and analyzed by ICP-MS. The Cu(II) content in the culture medium (3 mL) was also measured using the same technique, yielding a value of 41.46 ng. […]

[6] = system: NCI/ADR-RES (doxorubicin resistant ovarian carcinoma); settings: 48 h
Text: as §1, §2, §3, §4, §5, §6, §7, §8, §9, §10, §11, §12, §13, §14, §15, §16, §17, §18, §19
were performed with triplicate points.
b) Crystal violet cell staining
as §20, §21, §22, §23, §24, §25, §26, §27, §28, §29, §30, §31, §32, §33, §34, §35, §36

[7] = Fluorescence titration of cyclopeptides with Cu(II) ions (DynaFit fit); assay type: binding; settings: 2 μM cyclopeptide, 1 mM phosphate buffer, 10 mM NaCl, pH 6.5; 1: 1:2 model (cyclopeptide:metal); 2: simplified model with 1:1 and 2:1 species; read-out: global dissociation constant K D
Text: While the 2,2′-bipyridine ligand is known to be weakly emissive and for all practical purposes considered nonfluorescent, , the 5′-amido-[2,2′-bipyridine]-5-carboxamide unit in the βAlaBpy building block is highly emissive, displaying an intense emission band at c.a. 410 nm with a quantum yield of 0.37. Furthermore, the fluorescence of the βAlaBpy units is quenched upon coordination to a wide range of divalent transition metal ions. We exploited this property to monitor the coordinative properties of cyclopeptides 1 and 2 in the presence of labile Cu(II) ions in aqueous media. Thus, we measured the emission spectra of 2 μM solutions of the cyclopeptides 1 and 2 in 1 mM phosphate buffer and 10 mM NaCl, pH 6.5, upon excitation at 308 nm in the presence of increasing concentrations of Cu(II) ions. […] Therefore, the affinity of the first part of the titrations cannot be determined with this experiment as it is too strong. […]
5.2. Fluorescence titration experiments
Luminescence experiments were made with a Varian Cary Eclipse Fluorescence spectrophotometer coupled to a Cary Single Cell Peltier accessory (Agilent Technologies) temperature controller. […]
emission spectrum was recorded (λex= 308 nm; λem= 410 nm) after each addition. […]

[8] = NCI-H460, MTT, 1/Cu(II) 3 equiv Cu(II), 2/Cu(II) 5 equiv Cu(II)
[9] = NCI-H460, MTT, at maximum concentration
[10] = SF-268, crystal violet, 1/Cu(II) 3 equiv Cu(II), 2/Cu(II) 5 equiv Cu(II)
[11] = SF-268, crystal violet, at maximum concentration
[12] = MRC-5, 48 h, 1/Cu(II) 3 equiv Cu(II), 2/Cu(II) 5 equiv Cu(II)
[13] = MRC-5, 48 h, at maximum concentration
[14] = HCT-116, MTT, 1/Cu(II) 3 equiv Cu(II), 2/Cu(II) 5 equiv Cu(II)
[15] = HCT-116, MTT, at maximum concentration
[16] = NCI/ADR-RES, MTT, 1/Cu(II) 3 equiv Cu(II), 2/Cu(II) 5 equiv Cu(II)
[17] = NCI/ADR-RES, MTT, at maximum concentration

O.O.[Cl][Cu][Cl] [CuCl2·2H2O, reference compound]
IC50 [1, 8]: > 100 µM
E max (maximum % cell inhibition) [1, 9]: 97 ± 1%
intracellular ROS levels (fluorescence) (NCI/ADR-RES cells [2]): moderate effect
IC50 (SF-268 (human glioma); [10]): > 100 µM
E max (maximum % cell inhibition) (SF-268 (human glioma); [11]): 87 ± 1%
IC50 [3, 12]: 79 ± 3 µM
E max (maximum % cell inhibition) [3, 13]: 91 ± 1%
IC50 [4, 14]: > 100 µM
E max (maximum % cell inhibition) [4, 15]: 94 ± 1%
intracellular Cu(II) accumulation (ICP-MS) (NCI/ADR-RES cells [5]): modest increase in intracellular copper
IC50 [6, 16]: 99 ± 1 µM
E max (maximum % cell inhibition) [6, 17]: 91 ± 1%

N.N.[Cl][Pt][Cl] [cisplatin, reference compound]
IC50 [1, 8]: 5.29 ± 0.46 µM
E max (maximum % cell inhibition) [1, 9]: 62 ± 4%
IC50 (SF-268 (human glioma); [10]): 3.89 ± 0.08 µM
E max (maximum % cell inhibition) (SF-268 (human glioma); [11]): 92 ± 1%
IC50 [3, 12]: 5.7 ± 0.22 µM
E max (maximum % cell inhibition) [3, 13]: 92 ± 1%
IC50 [4, 14]: 13 ± 1 µM
E max (maximum % cell inhibition) [4, 15]: 94 ± 1%
IC50 [6, 16]: 13 ± 1 µM
E max (maximum % cell inhibition) [6, 17]: 86 ± 1%

N=C(N)NCCC[C@@H]1NC(=O)c2ccc(nc2)-c2ccc(cn2)NC(=O)CCNC(=O)[C@H](CCCNC(=N)N)NC(=O)[C@H](CCCNC(=N)N)NC(=O)[C@H](CCCNC(=N)N)NC(=O)c2ccc(nc2)-c2ccc(cn2)NC(=O)CCNC(=O)[C@H](CCCNC(=N)N)NC(=O)[C@H](CCCNC(=N)N)NC(=O)[C@H](CCCNC(=N)N)NC(=O)c2ccc(nc2)-c2ccc(cn2)NC(=O)CCNC(=O)[C@H](CCCNC(=N)N)NC(=O)[C@H](CCCNC(=N)N)NC1=O [compound 2, cyclo-(βAlaBpy-Arg3)3] (cyclo(RRR[βAla][X1]RRR[βAla][X1]RRR[βAla][X1]))
E max (maximum % cell inhibition) [1]: 92 ± 1%
IC50 [1]: 21 ± 1 µM
E max (maximum % cell inhibition) (SF-268 (human glioma)): 92 ± 1%
IC50 (SF-268 (human glioma)): 16 ± 1 µM
Kd [7]: 0.24 ± 0.1 µM
E max (maximum % cell inhibition) ([3]; 48 h): 92 ± 1%
IC50 ([3]; 48 h): 18 ± 1 µM
E max (maximum % cell inhibition) [4]: 80 ± 1%
IC50 [4]: > 100 µM
intracellular Cu(II) accumulation (ICP-MS) (NCI/ADR-RES cells [5]): notably lower than that of the metallopeptide systems
E max (maximum % cell inhibition) [6]: 86 ± 1%
IC50 [6]: 28 ± 1 µM

Reference: paper PMC12128024, “Copper(II) Cyclopeptides with High ROS-Mediated Cytotoxicity” (Bioconjugate Chemistry, 2025)
